According to patent publication US20060100170A1, “Isopycnic pharmaceutical formulation” (Agouron Pharmaceuticals, Inc., priority 2004, published 2006):
Blank lines part the entries; values can stand above or below the compound they belong to.

Legend:
[1] = Particle size distribution following jet-milling; assay type: physicochemical
Source text: The pharmaceutical agent is stable following gamma irradiation at 25 kGy and is stable following e-beam irradiation at 25 kGY. The particle size distribution, calculated by means well known in the art, following jet-milling (in microns) is as follows:
d10=0.5; d50=1.5; and d90=3.5; wherein for example, d50 represents 50% of the pharmaceutical agent is 1.5 microns or less in size.

[2] = Stability of the drug substance to light, room temperature and irradiation; assay type: physicochemical
Source text: The pharmaceutical agent is stable following gamma irradiation at 25 kGy and is stable following e-beam irradiation at 25 kGY. The particle size distribution, calculated by means well known in the art, following jet-milling (in microns) is as follows: […]

[3] = Sucrose effect on content uniformity in the ready to use (RTU) composition; assay type: physicochemical; details: ready to use composition made with sucrose from different vendors, FIG. 2
Source text: The concentrated sterile aqueous composition preferably comprises sucrose. The concentrated sterile aqueous composition comprises sucrose in an amount sufficient to form a stable aqueous composition of pharmaceutical agent represented by formula 1, typically about 40 to 80 weight percent sucrose based on the total weight of the composition. The concentrated sterile aqueous composition comprises sucrose in an amount ranging from a lower limit of 40, 45, 50, 55 or 60 or 65 weight percent, based on the total weight of the composition, to an upper limit of 70 or 75 or 80 weight percent, based on the total weight of the composition, with ranges from any upper limit to any lower limit being contemplated.
FIG. 2 illustrates the sucrose effect on content uniformity in the ready to use (RTU) composition.
The vertical bars represent 95% Confidence Interval.

[4] = Drug depot below Tenon's capsule vs below the conjunctiva, retinal drug concentration; assay type: in vivo, New Zealand White rabbits; details: depot on outer surface of the sclera below Tenon's capsule; measured the day after the injection; rabbit eyes
Source text: The sclera and Tenon's capsule define the exterior surface of the globe of the eye. For treatment of ARMD, CNV, retinopathies, retinitis, uveitis, cystoid macular edema (CME), glaucoma, and other diseases or conditions of the posterior segment of the eye, it is preferable to dispose a depot of a specific quantity of an ophthalmically acceptable pharmaceutically active agent directly on the outer surface of the sclera and below Tenon's capsule. In addition, in cases of ARMD and CME it is most preferable to dispose the depot directly on the outer surface of the sclera, below Tenon's capsule, and generally above the macula. In a study using New Zealand White rabbits, a drug depot of 4,9(11)-Pregnadien-17α,21-diol-3,20-dione-21-acetate, an angiostatic steroid available from Steraloids, Inc. of Wilton, N.H., was disposed directly on the outer surface of the sclera, below the Tenon's capsule, and slightly posterior of the equator of the rabbit eyes. […] Given the fact that the Tenon's capsule of a New Zealand White rabbit is very thin, these beneficial results are highly unexpected. It is important to note that Tenon's capsule of the human eye is also very thin. […]

particle size d10 [1]: 0.5 microns
particle size d50 [1]: 1.5 microns
particle size d90 [1]: 3.5 microns
light sensitivity ([2]; drug substance): light insensitive
stability following e-beam irradiation ([2]; e-beam irradiation at 25 kGY): stable
stability following gamma irradiation ([2]; gamma irradiation at 25 kGy): stable
stability at room temperature ([2]; room temperature): stable
SMILES: Cc1cc(C(=O)Nc2cc(Nc3ccc4c(/C=C/c5ccccn5)n[nH]c4c3)ccc2F)n(C)n1 [pharmaceutical agent 1]

content uniformity [3]: best content uniformity
SMILES: OC[C@H]1O[C@@](CO)(O[C@H]2O[C@H](CO)[C@@H](O)[C@H](O)[C@H]2O)[C@@H](O)[C@@H]1O [Sigma, S3929 Lot 101K0105, sucrose]

concentration of the angiostatic steroid, averaged over the entire retina, relative to a depot below the conjunctiva but above the Tenon's capsule [4]: about ten times greater
SMILES: CC(=O)OCC(=O)[C@@]1(O)CC[C@H]2[C@@H]3CCC4=CC(=O)CC[C@]4(C)C3=CC[C@@]21C [4,9(11)-Pregnadien-17α,21-diol-3,20-dione-21-acetate]
